Measurements published in US11744870B2, “Traditional Chinese medicine composition for treating metabolic syndrome and preparations thereof” (JIANGSU JIUXU PHARMACEUTICAL CO., LTD., priority 2018, dated 2023).

Legend:
Assay type in all cases: in vivo
[1] = system: KKAy mice with spontaneous type 2 diabetes; assay: Glycosylated hemoglobin (HbA1c) level in KKAy mice; conditions: 48th day, 150 mg/kg
Experimental: (§1) The female KKAy mice with spontaneous type 2 diabetes were fed with a diet dedicated for KKAy mice, with 5 mice in each cage. When the mice weighed over 40 g, prediction of a plurality of indexes such as blood glucose, blood lipid, and insulin resistance were performed. Based on fasting blood glucose, blood glucose reduction percentage within 40 min in an insulin tolerance test, blood triglyceride (TG), total cholesterol (TC), and weight, the mice were divided into 5 groups, with 12 mice in each group.
The KKAy mice with spontaneous type 2 diabetes were divided into 5 groups based on the following five indexes: blood glucose reduction percentage within 40 min in an insulin tolerance test, fasting blood glucose, blood TG, blood TC, and weight. […] Animals in the three dosage groups underwent gavage with 500, 1000, and 1500 mg/kg of the traditional Chinese medicine extract composition of the present invention respectively. The female C57BL/6J mice were used as a normal animal control group (Nor, underwent gavage with a equal volume of water, n=10). Gavage was performed once a day for 58 consecutive days, and blood was collected from the tail tip on the 48th day to measure the glycosylated hemoglobin level.

[2] = system: KKAy mice with spontaneous type 2 diabetes; assay: Blood pressure of KKAy mice (non-invasive sphygmomanometer); conditions: 53rd day, 150 mg/kg
Experimental: The KKAy mice with spontaneous type 2 diabetes were divided into 5 groups based on the following five indexes: blood glucose reduction percentage within 40 min in an insulin tolerance test, fasting blood glucose, blood TG, blood TC, and weight. […] The female C57BL/6J mice were used as a normal animal control group (Nor, underwent gavage with a equal volume of water, n=10). Gavage was performed once a day for 58 consecutive days, and onOn the 53rd day of administration to the animals in each group, the blood pressure was measured by using an intelligent non-invasive sphygmomanometer (BP98A, Beijing Ruanlong Biotechnology Co., Ltd.).

[3] = system: KKAy mice with spontaneous type 2 diabetes; assay: Hyperinsulinemic-euglycemic clamp in KKAy mice; conditions: after 54th day, SSBG 6.0 mmol/L, IIR 20.0 mU/kg/min, 150 mg/kg
Experimental: as §1
The KKAy mice with spontaneous type 2 diabetes were divided into 5 groups based on the following five indexes: blood glucose reduction percentage within 40 min in an insulin tolerance test, fasting blood glucose, blood TG, blood TC, and weight. […] The female C57BL/6J mice were used as a normal animal control group (Nor, underwent gavage with a equal volume of water, n=10). Gavage was performed once a day for 58 consecutive days, and After the 54th day of administration to the animals in each group, 5-6 mice were randomly selected from different groups to carry out a hyperinsulinemic-euglycemic clamp test each day.

[4] = system: KKAy mice with spontaneous type 2 diabetes; assay: Serum triglyceride and total cholesterol in KKAy mice; conditions: 14th day, 150 mg/kg
Experimental: as §1
The KKAy mice with spontaneous type 2 diabetes were divided into 5 groups based on the following five indexes: blood glucose reduction percentage within 40 min in an insulin tolerance test, fasting blood glucose, blood TG, blood TC, and weight. […] The female C57BL/6J mice were used as a normal animal control group (Nor, underwent gavage with a equal volume of water, n=10). Gavage was performed once a day for 58 consecutive days, and at the same time when the animals in each group underwent an insulin tolerance test on the 14th day of administration, blood was collected to measure the serum triglyceride (TG) and total cholesterol (TC) levels.

[5] = system: C57BL/6J mice fed with a high-fat diet; assay: Insulin tolerance test in C57BL/6J mice fed with a high-fat diet; conditions: 10th day, 150 mg/kg
Experimental: The male C57BL/6J mice were fed with a high-fat and high-nutrient diet, with 5 mice in each cage. When the mice weighed over 45 g, prediction of a plurality of indexes such as blood glucose, blood lipid, and insulin resistance were performed. Based on fasting blood glucose, blood glucose reduction percentage within 40 min in an insulin tolerance test, blood TG, blood TC, and weight, the mice were divided into 5 groups, with 12 mice in each group.
C57BL/6J mice fed a with high-fat diet and weighing more than 45 g were selected for multi-index prediction tests such as blood glucose, blood lipids, and insulin resistance, and were divided into 5 groups based on the following five indexes: blood glucose reduction percentage within 40 min in an insulin tolerance test, fasting blood glucose, blood TG, blood TC, and weight, with 12 mice in each group. […] Male C57BL/6J mice were used as a normal animal control group. Animals in the positive drug group and each test drug group underwent gavage with a corresponding dosage of the test drug each day. The normal control group and model group underwent gavage with an equal volume of water once a day for 30 days. Animals in each group underwent an insulin tolerance test on the 10th day of the administration. On the test day, the animals fasted for 4 hours (free to drink water), blood was collected from the tail tip (0 min), and then regular insulin (0.4 U/kg) was injected subcutaneously.

[6] = system: KKAy mice with spontaneous type 2 diabetes; assay: Fasting blood glucose, blood insulin and insulin sensitivity index in KKAy mice; conditions: 28th day, 150 mg/kg
Experimental: The KKAy mice with spontaneous type 2 diabetes were divided into 5 groups based on the following five indexes: blood glucose reduction percentage within 40 min in an insulin tolerance test, fasting blood glucose, blood TG, blood TC, and weight. […] Animals in the three dosage groups underwent gavage with 500, 1000, and 1500 mg/kg of the traditional Chinese medicine extract composition of the present invention respectively. […] Gavage was performed once a day for 58 consecutive days, and fasting blood glucose and blood insulin level were measured (ELISA method) at the same time when a glucose tolerance test was carried out on the animals in each group on the 28th day of administration, and an insulin sensitivity index (ISI) was calculated, wherein ISI=1/(FBGmg/dl×FBIng/ml).

SMILES: CN(C)C(=N)N=C(N)N [Met, metformin]
- HbA1c [1]: 4.34 ± 0.83 %
- BP [2]: 118.7 ± 10.8 mmHG
- GIR [3]: 14.5 ± 0.6 mg/kg · min
- Serum TC [4]: 243.8 ± 44.0 mg/dL
- Serum TG [4]: 253.2 ± 172.6 mg/dL
- Glu ([5]; 0 min): 104.5 ± 7.6 mg/dL
- Glu ([5]; 40 min): 78.3 ± 10.3 mg/dL
- Glu ([5]; 90 min): 87.5 ± 24.6 mg/dL
- Blood insulin ([6]; ELISA): 36.3 ± 27.6 ng/mL
- ISI ([6]; ISI=1/(FBGmg/dl×FBIng/ml)): 0.26 ± 0.16 ×10^−3
